Results reported in US9770479B2, “Extract of Rehmannia glutinasa Libosch for reducing blood sugar, reducing blood fat, treating leukemia, and preparation method and uses thereof” (priority 2007, dated 2017).
Marks after values point to notes of the source that are not given here.

Columns and labels:
HL260 cell = assay: Apoptosis induction / DNA fragments percentage in HL260 cells; type: cell-based; conditions: for DNA fragments percentage: n 4
Description: (§1) In order to investigate catalpol and the Rehmannia glutinasa Libosch. extract according to the present invention for their effect of inducing apoptosis in leukemia cells as well as the mechanism, bone marrows and HL260 cells from 15 patients with acute nonlymphocytic leukemia (ANLL) were mixed with catalpol and co-cultivated for 24 hr, and then different test methods including cytomorphologic means, DNA gel electrophoresis and DNA fragments percentage analysis were adopted to observe the effect on apoptosis in leukemia cells.

[1] = system: acute nonlymphocytic leukemia (ANLL) cell; assay: Apoptosis induction / DNA fragments percentage in ANLL bone marrow cells; type: cell-based, human; conditions: for DNA fragments percentage: n 15
Description: as §1

[2] = system: Alloxan-Induced Hyperglycemic Mice; assay: Blood glucose in alloxan-induced hyperglycemic mice; type: in vivo, Kunming mice; conditions: 500 mg/Kg intragastric daily
Protocol: Male Kunming mice weighing 25-29 g
Raising condition: The mice were housed in a laboratory animal room of 2nd grade that was ventilated regularly with the temperature controlled at 20-24° C.
Male mice were selected and firstly fasted for 6 hr, and alloxan was injected into tail vein at a dose of 60 mg/kg. After 72 hr, the mice having blood glucose values […] were selected as experimental animals and grouped.
The alloxan-induced hyperglycemic mice were randomly divided into groups labeled as normal control, model control, low-dose A, mid-dose A, high-dose A, DD, B, C, D, E and F. Subsequently, intragastric administration was performed for 15 consecutive days. 16 hours after the last administration, the mice were fasted for 8 hr. Blood glucose values before administration, and at 1 hour after administration for 5 days, 10 day and 15 days were tested respectively on blood collected from the inguinal vein, and the results were as follows: […]

[3] = system: Spontaneous Hyperglycemic KK Mice; assay: Blood glucose in spontaneous hyperglycemic KK mice (type II diabetes model); type: in vivo; conditions: 500 mg/kg intragastric once a day
Protocol: Forty male and female KK diabetes mice weighing about 40 g were separately housed at a temperature of […] and fed on a fat-heavy diet and arbitrary amount of water. After being fast food but not fast water for 2 hr, 10 μl blood collected from the tail veins was tested for blood glucose values, and mice having blood glucose value ≧8.0 mmol/L were selected.
The mice obtained from the above step were randomly divided into groups labeled as model control, low-dose A, mid-dose A, high-dose A, DD, B, C, D, E and F. Subsequently, intragastric administration was performed once a day for 15 consecutive days. Blood glucose values before administration, and at one hour after administration for 5 days, 10 day and 15 days (fast food but not fast water for two hours after last administration) were tested respectively, and the results were as follows: […]

bcl22 = assay: Immunohistochemical protein expression of gene bcl22 in bone marrow cells; type: cell-based, human; conditions: bone marrow cells before and after treatment; immunohistochemical method
Description: as §1

[4] = table section 'after treating with the extract for 24 hrs', 10 μg · ml^−1
[5] = table section 'at 24 hrs after treatment with catalpol', 10 μg · ml^−1
[6] = table section 'after treating with the extract for 24 hrs', 10 − 7 mol · L^−1
[7] = table section 'at 24 hrs after treatment with catalpol', 10 − 7 mol · L^−1
[8] = co-cultivated 24 hr, cytomorphology, DNA gel electrophoresis, DNA fragments percentage

Nc1ccn([C@@H]2O[C@H](CO)[C@@H](O)[C@@H]2O)c(=O)n1 [Ara2c]
DNA fragments percentage (HL260 cell; [4]): 27.0 ± 1.1% | DNA fragments percentage (HL260 cell; [5]): 28.2 ± 1.4% | DNA fragments percentage [1, 4]: 39.7 ± 7.9% | DNA fragments percentage [1, 5]: 40.1 ± 8.2%

CN(C)C(=N)NC(=N)N [DD, dimethyl diguanidine]
Blood Glucose Value ([2]; 0 day (before administration)): 19.7 mmol/L | Blood Glucose Value ([2]; 5 days): 12.5** mmol/L | Blood Glucose Value ([2]; 10 days): 13.2** mmol/L | Blood Glucose Value ([2]; 15 days): 14.0** mmol/L | Blood Glucose Value ([3]; 0 day (before administration)): 13.36 ± 2.85 mmol/L | Blood Glucose Value ([3]; 5 days): 11.16 ± 3.19 mmol/L | Blood Glucose Value ([3]; 10 days): 10.03 ± 2.11 mmol/L | Blood Glucose Value ([3]; 15 days): 8.84 ± 4.51 mmol/L

COC(=O)C[C@](O)(CCCC(C)(C)O)C(=O)O[C@@H]1C(OC)=C[C@]23CCCN2CCc2cc4c(cc2[C@H]13)OCO4 [HHT]
DNA fragments percentage (HL260 cell; [6]): 25.3 ± 1.0% | DNA fragments percentage (HL260 cell; [7]): 26.1 ± 1.2% | DNA fragments percentage [1, 6]: 36.2 ± 5.0% | DNA fragments percentage [1, 7]: 38.1 ± 5.1%

OC[C@H]1O[C@@H](O[C@@H]2OC=C[C@H]3[C@H](O)[C@@H]4O[C@]4(CO)[C@@H]23)[C@H](O)[C@@H](O)[C@@H]1O [catalpol]
induction of apoptosis (HL260 cell; [8]): able to induce apoptosis | induction of apoptosis [1, 8]: able to induce apoptosis | protein expression of gene bcl22 (bcl22): obviously lowered
